Reference: PubChem BioAssay (NCI)
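Dose response: 5 concentrations. Exposure: 48 h. Format: 96-well plates. Endpoint: linear interpolation; highest concentration if not reached. Here, GI50 denotes the concentration required for 50% inhibition of growth. TGI: total growth inhibition.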

Experiments:
Experiment in all cases: NCI anticancer screen, dose series, 48 h
HL-60(TB) leukemia = test system: HL-60(TB) leukemia
NCI-H460 lung = test system: NCI-H460 lung
SN12C renal = test system: SN12C renal
SK-OV-3 ovarian = test system: SK-OV-3 ovarian
SW-620 colon = test system: SW-620 colon
OVCAR-3 ovarian = test system: OVCAR-3 ovarian
LOX IMVI melanoma = test system: LOX IMVI melanoma
UACC-257 melanoma = test system: UACC-257 melanoma
MOLT-4 leukemia = test system: MOLT-4 leukemia
IGROV1 ovarian = test system: IGROV1 ovarian

CC(=O)OC(C(=O)O)C(OC(C)=O)C(OC(C)=O)C(OC(C)=O)C(=O)O (stereo unspecified)
TGI (HL-60(TB) leukemia): > 100 µM | TGI (NCI-H460 lung): > 100 µM | TGI (SN12C renal): > 100 µM | TGI (SK-OV-3 ovarian): > 100 µM | TGI (SW-620 colon): > 100 µM | TGI (OVCAR-3 ovarian): > 100 µM | TGI (LOX IMVI melanoma): > 100 µM | TGI (UACC-257 melanoma): > 100 µM | TGI (MOLT-4 leukemia): > 100 µM | TGI (IGROV1 ovarian): > 100 µM

C=C(CN(C)C)C(=O)c1ccccc1OC
TGI (HL-60(TB) leukemia): > 35.8 µM | TGI (NCI-H460 lung): 63.2 µM | TGI (SN12C renal): 40 µM | TGI (SK-OV-3 ovarian): > 66.1 µM | TGI (SW-620 colon): 19.6 µM | TGI (OVCAR-3 ovarian): 32.9 µM | TGI (LOX IMVI melanoma): 29.3 µM | TGI (UACC-257 melanoma): 30 µM | TGI (MOLT-4 leukemia): > 20.8 µM | TGI (IGROV1 ovarian): 58.1 µM

Cc1ncc(C(=O)Nc2ccc(CN3CCN(C)CC3)c(C(F)(F)F)c2)cc1C#Cc1cnc(N)c2ccc(C#N)cc12
GI50 (HL-60(TB) leukemia): 0.4 µM | TGI (HL-60(TB) leukemia): > 100 µM | GI50 (SN12C renal): < 0.0124 µM | TGI (SN12C renal): 5.01 µM | GI50 (SK-OV-3 ovarian): 0.02 µM | TGI (SK-OV-3 ovarian): > 100 µM | GI50 (OVCAR-3 ovarian): 0.0949 µM | TGI (OVCAR-3 ovarian): 8.09 µM | GI50 (UACC-257 melanoma): 0.0538 µM | TGI (UACC-257 melanoma): 1.61 µM | GI50 (MOLT-4 leukemia): 0.0559 µM | TGI (MOLT-4 leukemia): > 100 µM | TGI (IGROV1 ovarian): 0.23 µM

O=C(CSCC(=O)N/N=C\c1ccc(F)cc1F)N/N=C\c1ccc(F)cc1F
TGI (HL-60(TB) leukemia): > 100 µM | TGI (NCI-H460 lung): > 100 µM | TGI (SN12C renal): > 100 µM | TGI (SK-OV-3 ovarian): > 100 µM | TGI (SW-620 colon): > 100 µM | TGI (OVCAR-3 ovarian): > 100 µM | TGI (LOX IMVI melanoma): > 100 µM | TGI (UACC-257 melanoma): > 100 µM | TGI (MOLT-4 leukemia): > 100 µM | TGI (IGROV1 ovarian): > 100 µM

CCCCCCCCCCCCc1ccc(S(=O)(=O)O)cc1.[Cu+2]
TGI (HL-60(TB) leukemia): > 100 µM | TGI (NCI-H460 lung): > 100 µM | TGI (SN12C renal): > 100 µM | TGI (SK-OV-3 ovarian): 22.8 µM | TGI (SW-620 colon): > 100 µM | TGI (OVCAR-3 ovarian): > 100 µM | TGI (LOX IMVI melanoma): > 100 µM | TGI (UACC-257 melanoma): > 100 µM | TGI (MOLT-4 leukemia): > 100 µM | TGI (IGROV1 ovarian): > 100 µM

Cc1csc2nc(-c3cccc([N+](=O)[O-])c3)c(/C=N/N=C(N)N)n12
TGI (HL-60(TB) leukemia): 2.26 µM | TGI (NCI-H460 lung): 9.61 µM | TGI (SN12C renal): 3.11 µM | TGI (SK-OV-3 ovarian): 3.33 µM | TGI (SW-620 colon): 2.98 µM | TGI (OVCAR-3 ovarian): 4.24 µM | TGI (UACC-257 melanoma): 3.22 µM | TGI (IGROV1 ovarian): 3.19 µM

c1ccc(CSC(SCc2ccccc2)c2cccc3ccccc23)cc1
TGI (HL-60(TB) leukemia): > 10 µM | TGI (NCI-H460 lung): > 10 µM | TGI (SN12C renal): > 10 µM | TGI (SK-OV-3 ovarian): > 10 µM | TGI (SW-620 colon): > 10 µM | TGI (MOLT-4 leukemia): > 10 µM | TGI (IGROV1 ovarian): > 10 µM

C[N+]1(C(CO)Cc2c[nH]c3ccccc23)Cc2ccccc2C1 (stereo unspecified)
TGI (HL-60(TB) leukemia): > 100 µM | TGI (NCI-H460 lung): > 100 µM | TGI (SN12C renal): > 100 µM | TGI (SK-OV-3 ovarian): > 100 µM | TGI (SW-620 colon): > 100 µM | TGI (OVCAR-3 ovarian): > 100 µM | TGI (LOX IMVI melanoma): > 100 µM | TGI (UACC-257 melanoma): > 100 µM | TGI (MOLT-4 leukemia): > 100 µM | TGI (IGROV1 ovarian): > 100 µM

CC(C)CNC1=NCC(C)S1 (stereo unspecified)
TGI (HL-60(TB) leukemia): > 100 µM | TGI (NCI-H460 lung): > 100 µM | TGI (SK-OV-3 ovarian): > 100 µM | TGI (SW-620 colon): > 100 µM | TGI (OVCAR-3 ovarian): > 100 µM | TGI (LOX IMVI melanoma): > 100 µM | TGI (UACC-257 melanoma): > 100 µM | TGI (MOLT-4 leukemia): > 100 µM | TGI (IGROV1 ovarian): > 100 µM

O=C(O)c1cc2ccccc2c(N=Nc2ccc(S(=O)(=O)Nc3ccccn3)cc2)c1O
TGI (HL-60(TB) leukemia): > 100 µM | TGI (NCI-H460 lung): > 100 µM | TGI (SN12C renal): > 100 µM | TGI (SK-OV-3 ovarian): > 100 µM | TGI (SW-620 colon): > 100 µM | TGI (OVCAR-3 ovarian): > 100 µM | TGI (UACC-257 melanoma): > 100 µM | TGI (MOLT-4 leukemia): > 100 µM | TGI (IGROV1 ovarian): > 100 µM
